# Data published in US7972629B2, “Product comprising a combination of milk serum apoproteins and free fatty acids” (Westgate Biological Ltd., priority 2001, dated 2011).
# Legend:
# Assay type in all cases: cell-based
# [1] = test system: methicillin resistant Staphylococcus aureus (MRSA); experiment: Adhesion of MRSA to Buccal Epithelial Cells; conditions: 5 mg/ml, Diagram 11
# Experimental: (§1) The basis of the technique involves exposing a standardised (known) number of yeast or bacteria to a standardised substrate (number of BEC's), allowing a 60 minute incubation period for the cells to adhere and then filtering the combined population through a 10 micron nylon mesh. The mesh will retain BEC's and those yeast or bacteria adhering to them, non-adhering yeast or bacteria will be washed through, where they may be enumerated in the filtrate and expressed as a percentage of the original population not adhering; percent adherence being the inverse of this.
# Fluorescent labelling of bacteria is conducted after adhesion (on those cells in the filtrate) using fluorescent dyes such as BCECF/AM (Calbiochem Biosciences Inc., La Jolla, Calif.) and Syto 13 (Molecular Probes, Oregon, USA). Labelling methods are as described by the manufacturers of the dyes. The amount of fluorescence is measured in a fluorimeter (Fluroscan from Lab-Systems, Helsinki, Finland) and is in direct relationship to the number of bacteria present.
# (§2) The following general method may be used to measure adherence of the yeast Candida albicans to BEC and the inhibition of that adherence using the formulation of milk serum apoprotein(s) as described above. The same general method is suitable for measuring inhibition of adherence of Staphylococcus aureus to BEC's and also inhibition of adherence of Streptococcus mutans, with the exception that the substrate for Streptococcus mutans, is powdered hydroxylapatite available from Merck and used as a surrogate for dental enamel.
# MRSA is routinely sub-cultured on blood agar and a single colony is used to inoculate a tube of Oxoid Brain Heart Infusion Broth as described in Methods and Materials above. After 8 hours, the innoculum is used in growth and adhesion assays using the methodologies described above.
# MRSA adheres to BEC's, and these are used here in a manner similar to that described for Candida albicans. […] Bovine Serum Albumin is used as a ‘protein blank’ and this material has no effect on the adhesion of MRSA to BEC's.
# Streptococcus mutans = experiment: Adhesion of Streptococcus mutans to hydroxyapatite beads; conditions: 0.8 mg/ml; saliva coated hydroxyapatite; Diagram 13
# Text: as §2
# In measuring inhibition of adherence of Streptococcus mutans, hydroxyapatite powder from Merck was used as a surrogate for dental enamel. The test procedure is as described in Methods and Materials above, with the following modifications: 1 ml of fresh culture, adjusted to an optical density of 0.1 at 600 nm, is added to 5 mg of saliva coated hydroxyapatite beads; allowed to adhere for 1 hour; and centrifuged at slow speed to sediment the hydroxyapatite with adhering bacteria. The number of bacteria remaining in the supernatant are that percentage of the original population not adhering and are expressed as a percentage of the original population; the inverse being […].
# Candida albicans = experiment: Adhesion of Candida albicans to Buccal Epithelial Cells (adhesion assay); conditions: 1 mg/ml; yeast pre-treated 10 minutes; Diagram 8
# Text: Measurement of adhesion, and inhibition of the same, requires selection of a suitable substrate and a method of enumerating number of organisms adhering (or not) to that substrate. Most potential pathogenic organisms adhere to mucosal epithelial cells and a convenient source of a representative mucosal epithelial cell may be easily harvested from inside the cheek. Buccal epithelial cells (BEC's) are harvested by scraping the mucosal membranes in the mouth using a wooden tongue depresser as follows.
# Standard wooden tongue depressers as used in clinical examination of the mouth are wrapped, in tin foil and autoclaved. […]
# as §1, with “this. […]” for “this.”
# Both the washed BEC's and the freshly grown washed yeast cells are counted microscopically and the concentrations adjusted such that the yeast is in the order of 1×10^5 and BEC's at 1×10^3. […]
Molecule,inhibition of adhesion of MRSA to Buccal Epithelial Cell [1],inhibition of adhesion of MRSA to Buccal Epithelial Cell ([1]; listed as Sodium citrate),inhibition of adhesion of Streptococcus mutans to hydroxyapatite beads (Streptococcus mutans) [%],inhibition of adhesion of Candida albicans to Buccal Epithelial Cell (Candida albicans) [%]
O=C([O-])CC(O)(CC(=O)[O-])C(=O)[O-].[Na+].[Na+].[Na+] [sodium citrate],approximately 10%,no effect on adhesion,~10,–
"Bovine Serum Albumin: protein blank in Diagrams 8, 11 and 13",no effect,–,~30,13
